Experiments:
[1] = system: VEGF-induced migration of HUVECs; assay: VEGF-induced HUVEC migration assay; format: cell-based, human
Protocol: After 22 hours, quantitation of cell migration/invasion was achieved by post-labeling cells in the insert plates with a fluorescent dye and measuring the fluorescence of the invading/migrating cells in a fluorescent plate reader. The VEGF-induced migration was calculated by subtracting the migration that occurred when only basal medium was placed in the lower chamber of the wells.
(§1) Serum-starved HUVECs were placed, 100,000 cells per well, into the upper chambers of BD fibronectin-coated FluoroBlok 24-well insert plates. […] After 22 hours, quantitation of cell migration/invasion was achieved by post-labeling cells in the insert plates with a fluorescent dye and measuring the fluorescence of the invading/migrating cells in a fluorescent plate reader. The VEGF-induced migration was calculated for each experimental condition by subtracting the amount of migration that occurred when only basal medium was added to the lower chamber of the wells.
as §1, with “reader.” for “reader. The”, “observed in” for “that occurred when only basal medium was added to”, “absence” for “lower chamber”, “VEGF.” for “the wells.”
as §1, with “VEGF-stimulated” for “The VEGF-induced”, “derived” for “calculated for each experimental condition”, “basal migration measured in the absence” for “amount”, “VEGF.” for “migration that occurred when only basal medium was added to the lower chamber of the wells.”
Serum-starved HUVECs were placed, 100,000 cells per well, into the upper chambers of BD fibronectin-coated FluoroBlok 24-well insert plates. […] After 22 hours, quantitation of cell migration/invasion was achieved by post-labeling cells in the insert plates with a fluorescent dye and measuring the fluorescence of the invading/migrating cells in a fluorescent plate reader.

murine KDR-Fc = biological target: T1, murine KDR-Fc (Mus musculus, UniProt P35918); assay: BIAcore kinetic analysis of binding to murine KDR-Fc
T1 construct: purchased R & D Systems (Minneapolis, Minn.) 443-KD-050
Protocol: Three densities of recombinant murine KDR-Fc were cross-linked to the dextran surface of a CM5 sensor chip by the standard amine coupling procedure (0.5 mg/mL solution diluted 1:100 or 1:40 with 50 mM acetate, pH 6.0). Flow cell 1 was activated and then blocked to serve as a reference subtraction.
All samples were injected in duplicate. For association, peptides were injected at 30 μL/min for 3 minutes using the kinject program. Following a 10 minute dissociation, any remaining peptide was stripped from the rmKDR-Fc surface with a quickinject of 50 mM NaOH+1 M NaCl for 12 s at 75 μL/min.
Sensorgrams were analyzed using the simultaneous ka/kd fitting program in the BIAevaluation software 3.1.

KDR [2] = biological target: T2, KDR (Homo sapiens, UniProt P35968); assay: SPR analysis of dimer affinity for KDR; format: binding
Target sequence in this assay (P35968 20-1356, species assumed): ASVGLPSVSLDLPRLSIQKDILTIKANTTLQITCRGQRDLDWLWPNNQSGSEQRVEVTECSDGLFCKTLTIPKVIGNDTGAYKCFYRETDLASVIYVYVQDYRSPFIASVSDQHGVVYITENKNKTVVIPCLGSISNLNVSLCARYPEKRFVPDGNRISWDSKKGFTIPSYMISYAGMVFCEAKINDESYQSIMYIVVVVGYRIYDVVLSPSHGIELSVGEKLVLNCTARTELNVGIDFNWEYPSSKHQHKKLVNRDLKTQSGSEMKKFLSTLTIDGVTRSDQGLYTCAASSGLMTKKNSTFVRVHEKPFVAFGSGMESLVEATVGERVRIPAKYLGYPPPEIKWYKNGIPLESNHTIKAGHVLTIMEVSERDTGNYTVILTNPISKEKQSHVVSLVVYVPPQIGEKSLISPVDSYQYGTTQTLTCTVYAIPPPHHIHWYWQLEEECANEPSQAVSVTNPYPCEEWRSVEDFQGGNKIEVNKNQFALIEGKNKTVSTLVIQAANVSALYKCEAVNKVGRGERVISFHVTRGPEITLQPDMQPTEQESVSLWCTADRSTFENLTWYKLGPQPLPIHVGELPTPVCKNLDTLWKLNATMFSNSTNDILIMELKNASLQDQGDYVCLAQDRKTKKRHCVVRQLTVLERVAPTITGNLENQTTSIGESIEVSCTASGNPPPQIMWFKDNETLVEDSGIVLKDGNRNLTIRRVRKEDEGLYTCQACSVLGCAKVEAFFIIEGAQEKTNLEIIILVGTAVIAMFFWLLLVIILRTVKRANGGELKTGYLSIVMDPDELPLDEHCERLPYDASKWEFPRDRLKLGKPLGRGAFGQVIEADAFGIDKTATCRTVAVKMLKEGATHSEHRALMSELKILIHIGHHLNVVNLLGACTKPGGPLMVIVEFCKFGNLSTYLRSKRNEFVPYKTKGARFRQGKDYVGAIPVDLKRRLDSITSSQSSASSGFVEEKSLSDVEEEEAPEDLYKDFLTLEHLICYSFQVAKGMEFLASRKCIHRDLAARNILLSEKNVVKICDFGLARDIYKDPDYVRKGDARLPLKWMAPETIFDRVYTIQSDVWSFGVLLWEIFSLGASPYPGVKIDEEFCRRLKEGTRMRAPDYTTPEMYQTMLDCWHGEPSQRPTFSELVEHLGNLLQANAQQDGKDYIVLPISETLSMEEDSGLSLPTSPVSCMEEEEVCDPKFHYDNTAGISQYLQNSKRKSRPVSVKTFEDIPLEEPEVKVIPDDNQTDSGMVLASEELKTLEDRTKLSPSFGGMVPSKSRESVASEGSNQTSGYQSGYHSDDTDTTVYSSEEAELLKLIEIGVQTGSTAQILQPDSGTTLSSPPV

KDR [3] = biological target: T2, KDR; assay: Inhibition of VEGF-induced KDR receptor activation (phosphorylation) in HUVECs; format: cell-based; set-up: host or cells: HUVEC
Target sequence in this assay (P35968 20-1356): as the sequence (P35968 20-1356, species assumed) above
Protocol: In some cases, a neutralizing anti-KDR antibody (Catalog #AF357, R&D Systems) was used as a positive control inhibitor of activation. In such cases, the antibody was pre-incubated with the test cells for 30 min at 37° C. prior to the addition of fresh medium containing both VEGF and the antibody. After incubating the dishes 5 min. in a 37° C. tissue culture incubator they were washed three times with ice-cold D-PBS containing calcium and magnesium and placed on ice without removing the last 10 mL of Delbecco's phosphate buffered saline (D-PBS). […] Another 0.5 mL of lysis buffer was used to rinse out the first dish then transferred to the second dish, which was then also scraped and dispersed. The pooled lysate from the two dishes was transferred to a 1.5 mL Eppindorf tube. The above procedure was repeated for each of the controls and test samples (KDR-binding peptides), one at a time. The lysates were stored on ice until all the samples had been processed. At this point samples were either stored at −70° C. or processed to the end of the assay without interruption.
The next day 40 μl of protein A-sepharose beads were added to the tubes that were then incubated 4 C for 1 hr. on a rotator. […] After cooling, the beads in each tube were pelleted by centrifuging and the supernatants containing the immunoprecipitated KDR were transferred to new tubes and used immediately or frozen and stored at −70 C for later analysis.
Detection of phosphorylated KDR as well as total KDR in the immunoprecipitates was carried out by immunoblot analysis.
The blots were first probed with an anti-phosphotyrosine antibody (Transduction Labs, Catalog #P11120), diluted 1:200 in 5% Blotto-TBS with 0.1% Tween 20 added for 2 hr. at room temp. […]
After 5 min of treatment, lysates were prepared from each set of dishes. KDR was immunoprecipitated from the lysates was analyzed sequentially by immunoblotting for phosphorylation with an anti-phosphotyrosine antibody, and for total KDR with an anti-KDR antibody (to control for sample loading).

[4] = system: VEGF-induced peritoneal vascular permeability; assay: Blocking VEGF-enhanced peritoneal vascular permeability (Evan's Blue); format: in vivo, mice; conditions: 20 μM with […] VEGF165 i.p.
Protocol: Male balb/c nu/nu mice were injected intraperitoneally with 2 mL vehicle (1% bovine serum albumin in 95% saline/5% DMSO), vehicle+1.2 nM VEGF165, or vehicle+1.2 nM VEGF165+20 μM D10. Immediately after, the mice were injected with Evan's Blue Dye (0.5% in saline, 4 mL/kg) i.v. via their tail veins. After 60 min, mice were sacrificed by CO2 asphyxiation and the peritoneal fluid was retrieved. After centrifuging the samples briefly, the absorbance at 590 nm was measured for each.

PC3 cell tumors = conditions: 500 microcuries of Lu-labeled D13 i.v., 18 days
Protocol: PC3 cells from ATCC, grown as recommended by the supplier, were injected subcutaneously between the shoulder blades of nude mice. When their tumors reached 100-400 mm^3, twelve mice were injected i.v. with 500 microcuries of Lu-labeled D13 and their growth monitored for an additional 18 days. Mice were sacrificed if they lost 20% or more of their body weight or their tumors exceeded 2000 mm^3. Tumor growth in the treated mice was compared with the average tumor growth in 37 untreated nude mice implanted with PC3 tumors.

[5] = vs. 2700RU murine KDR-Fc surface
[6] = vs. 5000RU murine KDR-Fc surface

T1 sequence (P35918 with tags, fused parts or gaps limits assumed): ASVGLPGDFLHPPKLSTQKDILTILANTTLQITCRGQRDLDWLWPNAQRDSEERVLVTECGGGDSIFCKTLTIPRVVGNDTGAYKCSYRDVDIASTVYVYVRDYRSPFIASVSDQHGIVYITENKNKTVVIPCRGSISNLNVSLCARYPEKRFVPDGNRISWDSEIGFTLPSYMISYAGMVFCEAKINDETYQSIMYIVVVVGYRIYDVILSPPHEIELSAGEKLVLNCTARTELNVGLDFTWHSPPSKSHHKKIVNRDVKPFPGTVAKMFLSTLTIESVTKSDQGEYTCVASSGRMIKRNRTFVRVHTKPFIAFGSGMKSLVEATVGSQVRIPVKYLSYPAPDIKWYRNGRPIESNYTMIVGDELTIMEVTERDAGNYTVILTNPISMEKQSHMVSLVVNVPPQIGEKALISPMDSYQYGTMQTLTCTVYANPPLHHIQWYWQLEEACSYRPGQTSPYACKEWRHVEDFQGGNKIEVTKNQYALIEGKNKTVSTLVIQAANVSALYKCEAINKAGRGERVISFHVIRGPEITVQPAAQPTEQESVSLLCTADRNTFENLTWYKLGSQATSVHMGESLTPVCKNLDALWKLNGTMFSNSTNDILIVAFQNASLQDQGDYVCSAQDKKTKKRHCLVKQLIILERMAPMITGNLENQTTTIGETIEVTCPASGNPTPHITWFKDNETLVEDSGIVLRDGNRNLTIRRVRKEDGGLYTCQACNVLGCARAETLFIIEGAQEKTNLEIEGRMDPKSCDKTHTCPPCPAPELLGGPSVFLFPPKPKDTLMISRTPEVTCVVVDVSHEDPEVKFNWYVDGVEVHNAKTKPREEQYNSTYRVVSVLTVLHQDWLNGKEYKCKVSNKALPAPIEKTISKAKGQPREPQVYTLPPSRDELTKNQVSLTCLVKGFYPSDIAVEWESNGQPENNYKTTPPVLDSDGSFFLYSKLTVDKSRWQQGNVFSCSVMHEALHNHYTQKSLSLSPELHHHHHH

Ac-AGPTWCEDDWYYCWLFGTGGGK (SEQ ID NO:277)[(Biotin-JJK-(O═)C(CH2)3C(═O)-JJ-NH(CH2)4—(S)—CH((Ac-VCWEDSWGGEVCFRYDPGGGK (SEQ ID NO:337))-NH)CONH2]—NH2 [D1]
VEGF-stimulated endothelial cell migration blocked ([1]; 5 nM): 84% | VEGF-stimulated endothelial cell migration blocked ([1]; 25 nM): almost completely blocked | Inhibition of VEGF-stimulated migration ([1]; 50 nM): completely blocked | Effect on serum-induced migration ([1]; serum (5% FBS) used in place of VEGF): not significantly diminished | Kd1 (murine KDR-Fc; [5]): 0.0139 s⁻¹ | ka1 (murine KDR-Fc; [5]): 794000 M⁻¹ s⁻¹ | ka2 (1/RUs) (murine KDR-Fc; [5]): 3.31E−04 1/RUs | kd2 (murine KDR-Fc; [5]): 0.000596 s⁻¹ | Kd1 (murine KDR-Fc; [6]): 0.00888 s⁻¹ | ka1 (murine KDR-Fc; [6]): 554000 M⁻¹ s⁻¹ | ka2 (1/RUs) (murine KDR-Fc; [6]): 1.17E−04 1/RUs | kd2 (murine KDR-Fc; [6]): 0.000457 s⁻¹ | Fold higher affinity for KDR than D2 (by SPR analysis) (KDR [2]): 10 fold | Fold lower IC50 than D2 in the activation assay (KDR [3]): at least 100 fold | Block of VEGF-induced phosphorylation of KDR (KDR [3]; 1 nM): More than half | Block of VEGF-induced phosphorylation of KDR (KDR [3]; 10 nM): completely block

Ac-AGPTWCEDDWYYCWLFGTGGGK (SEQ ID NO:277){[Ac-GDSRVCWEDSWGGEVCFRYDPGGGK (SEQ ID NO:294) (JJ-Glut-NH(CH2)4—(S)—CH(PnAO6-Glut-NH) (C═O—)]—NH2}—NH2 [D10]
Block of VEGF-increased dye leakage into the peritoneum [4]: substantially blocked

Ac-AGPTWCEDDWYYCWLFGTGGGK (SEQ ID NO:277){Ac-VCWEDSWGGEVCFRYDPGGGK (SEQ ID NO:337)[JJ-Glut-K(BOA)]—NH2}—NH2 [D13]
Treated mice with significant or complete tumor growth delay (PC3 cell tumors): 6 of the 12

— patent US9408926B2, “KDR and VEGF/KDR binding peptides and their use in diagnosis and therapy” (Bracco Suisse S.A., priority 2002, dated 2016)
